These results are taken from patent publication US11999727B2 (Tango Therapeutics, Inc., priority 2020, dated 2024).

The target in test [1] is T1, PRMT5 (Homo sapiens, UniProt O14744).
T1 construct: purchased Viva (custom protein)
The experiment in a line: PRMT5 biochemical IC50 assay with SAM as cofactor. Conditions: PRMT5, SAM as cofactor; read-out: SAM IC50.

The target in test [2] is T1, PRMT5. The test can be described thus: PRMT5 biochemical IC50 assay with no cofactor. Conditions: PRMT5, no cofactor; read-out: No Cofactor/rel IC50. The source says:
Table 1 indicates IC50 values (μM) against PRMT5 for exemplary compounds in the presence of SAM as cofactor, with no cofactor, and with MTA as cofactor, respectively (columns 4-6). […] Ki values can be calculated from the IC50 values as described in the Examples section. As detailed in the Examples section, for the assay performed in the presence of SAM, IC50=Ki×1.5 (Ki=IC50/1.5).

In test [3] the target is T1, PRMT5. The test can be described thus: PRMT5 biochemical IC50 assay with MTA as cofactor. Conditions: PRMT5, MTA as cofactor; read-out: MTA IC50.
For test [4], the system named is HAP1 MTAP-intact cell line. The experiment in a line: SDMA in-cell western assay, HAP1 MTAP-intact. Type of test: cell-based. To be noted: Homo sapiens, HAP1, SDMA in-cell western, HAP1 MTAP-intact; read-out: MTAP HAP1 intact IC50. The method, boiled down:
(§1)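 Compounds were tested in HAP1 cells differing only in MTAP status (endogenous expression versus null). Cellular SDMA levels were then measured by in-cell western, giving an IC50 in each background.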

Test [5] deals with HAP1 MTAP-deleted cell line. The experiment in a line: SDMA in-cell western assay, HAP1 MTAP-deleted. To be noted: for IC50: Homo sapiens, HAP1, SDMA in-cell western, HAP1 MTAP-deleted, read-out: HAP 1 MTAP deleted IC50; for MTAP intact/deleted ratio: IC50 ratio HAP1 MTAP-intact / HAP1 MTAP-deleted, SDMA in-cell western. Type of test: cell-based. The method, boiled down: as §1
For test [6], the system named is HAP1 MTAP-deleted cell line. The experiment in a line: Viability assay, MTAP-deleted cell line. Type of test: cell-based. To be noted: Homo sapiens, HAP1, viability assay, MTAP-deleted cell line; read-out: HAP1 MTAP deleted viability. The source says: Table 1 additionally indicates IC50 values in a viability assay for the MTAP-deleted cell line (column 10), indicating the effect of treatment with compound on cell survival.

T1 sequence (O14744 whole entry): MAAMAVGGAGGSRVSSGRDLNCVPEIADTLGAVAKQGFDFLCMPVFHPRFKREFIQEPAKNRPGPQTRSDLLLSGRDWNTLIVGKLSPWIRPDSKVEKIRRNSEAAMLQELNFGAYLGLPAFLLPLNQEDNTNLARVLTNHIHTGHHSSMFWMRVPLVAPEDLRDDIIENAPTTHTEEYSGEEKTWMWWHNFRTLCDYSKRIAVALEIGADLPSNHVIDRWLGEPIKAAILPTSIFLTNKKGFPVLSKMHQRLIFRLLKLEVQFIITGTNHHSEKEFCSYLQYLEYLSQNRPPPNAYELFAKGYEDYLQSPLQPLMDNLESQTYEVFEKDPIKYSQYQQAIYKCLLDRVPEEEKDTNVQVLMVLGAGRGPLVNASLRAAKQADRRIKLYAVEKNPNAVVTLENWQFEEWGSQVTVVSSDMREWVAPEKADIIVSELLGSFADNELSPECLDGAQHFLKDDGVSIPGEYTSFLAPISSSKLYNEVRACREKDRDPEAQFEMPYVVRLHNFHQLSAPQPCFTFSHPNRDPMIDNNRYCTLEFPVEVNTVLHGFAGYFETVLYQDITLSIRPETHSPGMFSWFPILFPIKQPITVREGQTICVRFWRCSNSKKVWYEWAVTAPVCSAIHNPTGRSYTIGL
T1 sequence (Q9BQA1 whole entry partner): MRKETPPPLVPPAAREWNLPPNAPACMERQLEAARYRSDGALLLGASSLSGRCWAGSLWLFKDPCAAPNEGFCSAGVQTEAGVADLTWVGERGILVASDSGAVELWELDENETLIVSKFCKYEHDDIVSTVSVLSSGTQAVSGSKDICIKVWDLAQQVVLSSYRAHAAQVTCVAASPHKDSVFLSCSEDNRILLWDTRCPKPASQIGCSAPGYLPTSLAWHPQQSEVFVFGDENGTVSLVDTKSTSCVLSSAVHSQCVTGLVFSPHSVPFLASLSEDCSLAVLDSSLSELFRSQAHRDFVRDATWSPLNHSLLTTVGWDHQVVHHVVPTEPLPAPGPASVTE

For `CCc1cc(NC(=O)C(=O)N2C[C@H](C)CC[C@H]2c2ccc(NS(C)(=O)=O)nc2)cnc1N` (single isomer, unassigned) [Compound 995], the IC50 is 50 to 500 nM on PRMT5 [1]; 50 to 500 nM at PRMT5 [2]; 50 to 500 nM on PRMT5 [3]; more than 1000 nM in test [4]; 100 to 1000 nM in test [5]; more than 10000 nM in test [6]. In test [5], the MTAP intact/deleted ratio result is recorded as “A (an IC50 ratio greater than or equal to 10 fold)”.

As to `Cc1cc(NC(=O)C(=O)N2C[C@@H](C)CC[C@@H]2c2ccc3sc(N)nc3c2)cnc1N` (single isomer, unassigned) [Compound 997], the IC50 on PRMT5 [1] was 50 to 500 nM; at PRMT5 [2], less than 50 nM; on PRMT5 [3], less than 50 nM; in test [4] it was less than 100 nM; in test [5], less than 100 nM; in test [6], less than 1000 nM. Moreover, in test [5], the MTAP intact/deleted ratio result was “B (an IC50 ratio greater than or equal to 3 fold but lower than 10 fold)”.

As to `Cc1cc(NC(=O)C(=O)N2C[C@@H](C)CC[C@@H]2c2ccc(NS(C)(=O)=O)nc2)cnc1N` (single isomer, unassigned) [Compound 998], the IC50 on PRMT5 [1] is more than 500 nM; at PRMT5 [2], more than 500 nM; at PRMT5 [3], more than 500 nM; in test [4], more than 1000 nM; in test [5], more than 1000 nM; in test [6], more than 10000 nM. The MTAP intact/deleted ratio entry in test [5] is given as “C (an IC50 ratio of less than 3 fold)”.

On to `C[C@@H]1CC[C@@H](c2ccc(NS(C)(=O)=O)nc2)N(C(=O)C(=O)Nc2cncc(C(N)=O)c2)C1` (single isomer, unassigned) [Compound 1003], for which the IC50 on PRMT5 [1] is 50 to 500 nM; on PRMT5 [2], 50 to 500 nM; on PRMT5 [3] it was less than 50 nM; in test [4], more than 1000 nM; in test [5], more than 1000 nM; in test [6], more than 10000 nM. Besides, the MTAP intact/deleted ratio entry in test [5] is listed as “C (an IC50 ratio of less than 3 fold)”.

For the compound `COc1ncc(NC(=O)C(=O)N2C[C@@H](C)CC[C@@H]2c2cc3[nH]ncc3s2)cc1C(N)=O` (single isomer, unassigned) [Compound 1006, 2-methoxy-5-(2-(5-methyl-2-(1H-thieno[3,2-c]pyrazol-5-yl)piperidin-1-yl)-2-oxoacetamido)nicotinamide], the IC50 on PRMT5 [1] is 50 to 500 nM; at PRMT5 [2], 50 to 500 nM; on PRMT5 [3] it was less than 50 nM; in test [4], more than 1000 nM; in test [5], less than 100 nM; in test [6] it was less than 1000 nM. Moreover, the MTAP intact/deleted ratio result in test [5] is on record as “A (an IC50 ratio greater than or equal to 10 fold)”.

Turning to `C[C@@H]1CC[C@@H](c2cc[nH]n2)N(C(=O)C(=O)Nc2cncc(C(N)=O)c2)C1` (single isomer, unassigned) [Compound 1007], the IC50 on PRMT5 [1] is more than 500 nM; on PRMT5 [2] it was more than 500 nM; on PRMT5 [3] it was more than 500 nM; in test [4], more than 1000 nM; in test [5], more than 1000 nM; in test [6], more than 10000 nM. In test [5], the MTAP intact/deleted ratio result is “B (an IC50 ratio greater than or equal to 3 fold but lower than 10 fold)”.

In the case of `Cc1cc(NC(=O)C(=O)N2C[C@H](C)CC[C@H]2c2ccc(C(F)F)nc2)cnc1N` (single isomer, unassigned) [Compound 1011], the IC50 was more than 500 nM on PRMT5 [1]; more than 500 nM on PRMT5 [2]; more than 500 nM at PRMT5 [3]; more than 1000 nM in test [4]; more than 1000 nM in test [5]; more than 10000 nM in test [6]. Moreover, the MTAP intact/deleted ratio result in test [5] is “C (an IC50 ratio of less than 3 fold)”.

In the case of `Cc1cc(NC(=O)C(=O)N2C[C@@H](C)CC[C@@H]2c2ccc(C(F)(F)F)nc2)cnc1N` (single isomer, unassigned) [Compound 1012], the IC50 was 50 to 500 nM on PRMT5 [1]; 50 to 500 nM at PRMT5 [2]; less than 50 nM on PRMT5 [3]; 100 to 1000 nM in test [4]; 100 to 1000 nM in test [5]; 1000 to 10000 nM in test [6]. For the same compound, the MTAP intact/deleted ratio entry in test [5] was “C (an IC50 ratio of less than 3 fold)”.
